Source: patent publication US12667545B2, “Lyophilized compositions of phenobarbital sodium salt” (Nivagen Pharmaceuticals, Inc., priority 2019, dated 2026)

Experiments:
[1] = X-Ray Powder Diffraction (XRPD); type: physicochemical; conditions: FIGS. 5A-5D
Description: X-Ray Powder Diffraction. With reference to FIGS. 5A-5D, XRPD was performed using the Rigaku Smart-Lab X-ray diffraction system configured for reflection Bragg-Brentano geometry using a line source X-ray beam. The X-ray source is a Cu Long Fine Focus tube that was operated at 40 kV and 44 mA. That source provides an incident beam profile at the sample that changes from a narrow line at high angles to a broad rectangle at low angles. Beam conditioning slits were used on the line X-ray source to ensure that the maximum beam size is less than 10 mm both along the line and normal to the line. The Bragg-Brentano geometry is a para-focusing geometry controlled by passive divergence and receiving slits with the sample itself acting as the focusing component for the optics. The inherent resolution of Bragg-Brentano geometry is governed in part by the diffractometer radius and the width of the receiving slit used. Typically, the Rigaku Smart-Lab is operated to give peak widths of 0.1° 2θ or less. The axial divergence of the X-ray beam is controlled by 5.0-degree Soller slits in both the incident and diffracted beam paths. […] The samples were analyzed from 2 to 40° 2θ using a continuous scan of 6° 2θ per minute with an effective step size of 0.02° 2θ.

[2] = cited from earlier work

CCC1(c2ccccc2)C(=O)N=C([O-])NC1=O.[Na+] (stereo not drawn) [USP grade P API, sodium 5-ethyl-4,6-dioxo-5-phenyl-1H-pyrimidin-2-olate]
solid form by XRPD [1]: polymorphous

CCC(C(=O)NC(N)=O)c1ccccc1 (stereo not drawn) [Pheneturide, phenylethylacetylurea]
liver enzyme induction ([2]; Nayyar et al., 2012): potent liver enzyme inducer
serum calcium and folate ([2]; patients treated with Pheneturide): low levels
